Source: patent US7728012B2, “Carboxamide compounds and their use as calpain inhibitors” (Abbott GmbH & Co. KG, priority 2006, dated 2010)

Columns and labels:
Assay type in all cases: biochemical
[1] = target: T1, calpain-I isolated from human erythrocytes (Homo sapiens, UniProt P07384); experiment: Calpain I kinetic fluorescence enzyme inhibition assay; details: apparent Ki from IC50 by Cheng-Prussoff; average of 2 to 4 dose-effect plots
T1 construct: calpain-I—isolated from human erythrocytes; purchased Calbiochem 208713; host or cells: human erythrocytes (tissue isolate)
T1 sequence (P07384 1-714): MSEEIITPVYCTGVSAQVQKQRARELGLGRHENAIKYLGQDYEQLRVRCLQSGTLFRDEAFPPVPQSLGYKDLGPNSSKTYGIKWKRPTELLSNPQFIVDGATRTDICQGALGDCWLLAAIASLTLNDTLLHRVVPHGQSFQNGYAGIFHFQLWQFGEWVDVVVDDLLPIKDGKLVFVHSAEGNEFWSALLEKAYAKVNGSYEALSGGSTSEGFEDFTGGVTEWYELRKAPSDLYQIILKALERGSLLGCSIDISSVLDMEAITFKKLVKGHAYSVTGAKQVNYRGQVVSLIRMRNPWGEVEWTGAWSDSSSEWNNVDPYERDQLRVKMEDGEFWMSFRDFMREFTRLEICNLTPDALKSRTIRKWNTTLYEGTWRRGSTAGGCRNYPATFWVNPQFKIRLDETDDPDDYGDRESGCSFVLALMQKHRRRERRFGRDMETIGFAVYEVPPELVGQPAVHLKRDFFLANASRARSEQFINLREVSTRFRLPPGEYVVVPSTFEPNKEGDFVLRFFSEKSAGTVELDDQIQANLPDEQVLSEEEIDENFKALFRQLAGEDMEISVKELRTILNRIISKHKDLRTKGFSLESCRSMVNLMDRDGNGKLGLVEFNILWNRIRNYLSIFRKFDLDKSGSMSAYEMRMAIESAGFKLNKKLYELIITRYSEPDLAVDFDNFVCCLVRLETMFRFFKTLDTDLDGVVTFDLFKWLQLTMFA
T1 sequence (P04632 1-268 partner): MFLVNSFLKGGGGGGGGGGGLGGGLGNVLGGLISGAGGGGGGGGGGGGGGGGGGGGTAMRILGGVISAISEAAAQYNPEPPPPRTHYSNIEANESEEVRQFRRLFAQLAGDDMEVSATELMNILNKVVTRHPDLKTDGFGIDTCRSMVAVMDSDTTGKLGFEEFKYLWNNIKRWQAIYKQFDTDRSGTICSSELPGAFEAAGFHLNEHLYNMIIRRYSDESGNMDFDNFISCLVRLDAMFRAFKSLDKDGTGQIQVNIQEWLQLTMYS

[2] = target: T2, cathepsin B isolated from human liver (Homo sapiens, UniProt P07858); experiment: Cathepsin B kinetic fluorescence enzyme inhibition assay; details: selectivity ratio versus calpain I
T2 construct: cathepsin B—isolated from human liver; purchased Calbiochem 219362; host or cells: human liver (tissue isolate)
Procedure: (§1) The following solutions and buffers were employed: • HBS (for 40 ml): 800 μl M HEPES; 2.16 ml 100 mM KCl; 4.8 ml 1M NaCl; 3.59 ml 5% glucose; 60 μl μM MgSO4; 400 μl 100 mM Na pyruvate, 28.19 ml water; pH 7.2-7.5. • lysis buffer (for 20 ml): 400 μl M Tris pH 8.2; 2.74 ml 1M NaCl; 520 μl 0.5M EDTA; 2 ml 10% triton X-100; 0.8 ml (=1:25) CompletePlus (1 tablet/2 ml H2O); 200 μl 100 mM Pefabloc; 13.34 ml water, pH 8.2. • TBST (10×) (for 1 l): 100 mM Tris (12.1 g); 1.5M NaCl (87 g); 1% Tween 20 (10 g), adjusted to pH 8. I Enzyme Inhibition In Vitro: • Testing for blockade of the corresponding enzymic activities was carried out by means of kinetic fluorescence assays (excitation 390 nm, emission 460 nm). • Apparent Ki values were calculated from the experimentally determined IC50 values by the Cheng-Prussoff relation assuming a reversible competitive enzyme inhibition. The Km values of the substrates used under the assay conditions indicated above were: 90 μM (Z-Phe-Arg-AMC, cathepsin B), 10 μM (Z-Gly-Pro-Arg-AMC, cathepsin K), 2 μM (Z-Phe-Arg-AMC, cathepsin L), and 30 μM (Z-Val-Val-Arg-AMC, cathepsin S). • The indicated Ki values are averages of the inhibition constants calculated on the basis of 2 to 4 independent dose-effect plots.
(§2) The following assays were used: • 1. Calpain I: • 20 nM calpain-I—isolated from human erythrocytes (Calbiochem #208713), 100 μM Suc-Leu-Tyr-AMC (Bachem #1-1355) as substrate in buffer with 62 mM imidazole, 0.3 mM CaCl2, 0.10% CHAPS, 0.05% BSA, 1 mM DTT at pH 7.3 and room temperature. • 2. Cathepsin B: • 0.25 nM cathepsin B—isolated from human liver (Calbiochem #219362), 100 μM Z-Phe-Arg-AMC (Bachem #I-1160) as substrate 50 mM MES, 2 mM EDTA, 0.05% Brij 35, 2.5 mM L-cysteine, pH 6.0, room temperature. • 3. Cathepsin K: • 3 nM cathepsin K—activated from recombinant human procathepsin K from E. coli (Calbiochem #342001), 10 μM Z-Gly-Pro-Arg-AMC (Biomol #P-142) as substrate in 50 mM MES, 2 mM EDTA, 0.05% Brij 35, 2.5 mM L-cysteine, pH 6.0, room temperature. • 4. Cathepsin L: • 1 nM cathepsin L—isolated from human liver (Calbiochem #219402), 2 μM Z-Phe-Arg-AMC (Bachem #1-1160) as substrate in 50 mM MES, 2 mM EDTA, 0.05% Brij 35, 2.5 mM L-cysteine, pH 6.0, room temperature. • 5. Cathepsin S: • 0.5 nM recombinant human cathepsin S from E. coli (Calbiochem #219343), 20 μM Z-Val-Val-Arg-AMC (Bachem #1-1540) as substrate in 50 mM MES, 2 mM EDTA, 0.05% Brij 35, 2.5 mM L-cysteine, pH 6.0, room temperature. • The results of the in vitro determination are indicated in Table 1. The following abbreviations are used in Table 1: • The “Calpain activity” column, ++ stands for a calpain Ki (Ki(calpain)) of ≦40 nM and + means: 40 nM<Ki(Calpain)≦100 nM. • The “Sel. cat. B” column indicates the Ki(cathepsin B)/Ki(calpain) ratio. In this connection, ++ means a Ki(cathepsin B)/Ki(calpain) ratio of ≧30 and + means 10≦Ki(cathepsin B)/Ki(calpain)<30. • The “Sel. cat. K” column indicates the Ki(cathepsin K)/Ki(calpain) ratio. In this connection, ++ means a Ki(cathepsin K)/Ki(calpain) ratio of ≧30 and + means 10≦Ki(cathepsin K)/Ki(calpain)<30. • The “Sel. cat. L” column indicates the Ki(cathepsin L)/Ki(calpain) ratio. In this connection, ++ means a Ki(cathepsin L)/Ki(calpain) ratio of ≧50 and + means 30≦Ki(cathepsin L)/Ki(calpain)<50. • The “Sel. cat. S” column indicates the Ki(cathepsin S)/Ki(calpain) ratio. In this connection, ++ means a Ki(cathepsin S)/Ki(calpain) ratio of ≧100 and + means 50≦Ki(cathepsin S)/Ki(calpain)<100.

[3] = target: T3, cathepsin K activated from recombinant human procathepsin K (Homo sapiens, UniProt P43235); experiment: Cathepsin K kinetic fluorescence enzyme inhibition assay; details: selectivity ratio versus calpain I
T3 construct: purchased Calbiochem 342001; host or cells: E. coli
T3 sequence (P43235 115-329): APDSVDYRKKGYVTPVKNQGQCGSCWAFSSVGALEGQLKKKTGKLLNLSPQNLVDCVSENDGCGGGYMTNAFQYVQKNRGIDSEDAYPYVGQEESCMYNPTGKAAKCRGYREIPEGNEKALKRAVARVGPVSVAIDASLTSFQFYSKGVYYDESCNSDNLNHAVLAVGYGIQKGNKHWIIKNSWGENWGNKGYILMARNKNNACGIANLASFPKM
Procedure: as §1, §2

[4] = target: T4, cathepsin L isolated from human liver (Homo sapiens, UniProt P07711); experiment: Cathepsin L kinetic fluorescence enzyme inhibition assay; details: selectivity ratio versus calpain I
T4 construct: cathepsin L—isolated from human liver; purchased Calbiochem 219402; host or cells: human liver (tissue isolate)
T4 sequence (P07711 114-333): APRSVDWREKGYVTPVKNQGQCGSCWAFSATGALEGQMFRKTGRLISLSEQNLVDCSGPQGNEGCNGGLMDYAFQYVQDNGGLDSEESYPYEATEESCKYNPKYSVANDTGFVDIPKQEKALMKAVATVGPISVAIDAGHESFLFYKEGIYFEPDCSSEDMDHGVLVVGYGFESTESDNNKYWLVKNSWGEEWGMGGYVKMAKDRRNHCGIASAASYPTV
Procedure, shortened: (§3)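 Kinetic fluorescence (ex 390/em 460 nm) at room temperature in 50 mM MES, 2 mM EDTA, 0.05% Brij 35, 2.5 mM L-cysteine, pH 6.0. Cathepsin B (liver, 0.25 nM) with 100 μM Z-Phe-Arg-AMC; cathepsin L (liver, 1 nM) with 2 μM Z-Phe-Arg-AMC; recombinant E. coli cathepsin S (0.5 nM) with 20 μM Z-Val-Val-Arg-AMC. Ki via Cheng-Prusoff.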

[5] = target: T5, recombinant human cathepsin S (Homo sapiens, UniProt P25774); experiment: Cathepsin S kinetic fluorescence enzyme inhibition assay; details: selectivity ratio versus calpain I
T5 construct: purchased Calbiochem 219343; host or cells: E. coli
T5 sequence (P25774 115-331): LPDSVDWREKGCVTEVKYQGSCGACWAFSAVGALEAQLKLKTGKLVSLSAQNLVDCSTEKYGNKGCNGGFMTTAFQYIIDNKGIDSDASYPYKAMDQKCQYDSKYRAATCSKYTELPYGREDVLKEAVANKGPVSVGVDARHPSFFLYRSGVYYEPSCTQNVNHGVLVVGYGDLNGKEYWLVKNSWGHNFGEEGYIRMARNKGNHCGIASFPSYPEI
Procedure, shortened: as §3

| Ki [1] [nM] | Sel cat. K (Ki(cathepsin K)/Ki(calpain) ratio) [3] | SMILES | Sel cat. B (Ki(cathepsin B)/Ki(calpain) ratio) [2] | Sel cat. L (Ki(cathepsin L)/Ki(calpain) ratio) [4] | Sel cat. S (Ki(cathepsin S)/Ki(calpain) ratio) [5] |
| --- | --- | --- | --- | --- | --- |
| ≤ 40 | + (10≦Ki(cathepsin K)/Ki(calpain)<30) | NC(=O)C(=O)C(Cc1ccccc1)NC(=O)c1cc(Cl)cnc1-n1ccc(-c2ccccc2)n1 (stereo not drawn) [Example 27, N-(3-Amino-1-benzyl-2,3-dioxopropyl)-5-chloro-2-(3-phenyl-1H-pyrazol-1-yl)nicotinamide] | ++ (Ki(cathepsin B)/Ki(calpain) ratio of ≧30) | + (30≦Ki(cathepsin L)/Ki(calpain)<50) |  |
| ≤ 40 | + (10≦Ki(cathepsin K)/Ki(calpain)<30) | Cl.NC(=O)C(=O)C(Cc1ccccc1)NC(=O)c1cccnc1-n1ccc(-c2ccc(N3CCOCC3)cc2)n1 (stereo not drawn) [Example 29, N-(3-Amino-1-benzyl-2,3-dioxopropyl)-2-[3-(4-morpholin-4-ylphenyl)-1H-pyrazol-1-yl]nicotinamide hydrochloride] |  | ++ (Ki(cathepsin L)/Ki(calpain) ratio of ≧50) | ++ (Ki(cathepsin S)/Ki(calpain) ratio of ≧100) |
| ≤ 40 | + (10≦Ki(cathepsin K)/Ki(calpain)<30) | NC(=O)C(=O)C(CC1CCCCC1)NC(=O)c1cccnc1-n1ccc(-c2ccccc2)n1 (stereo not drawn) [Example 66, N-[3-Amino-1-(cyclohexylmethyl)-2,3-dioxopropyl]-2-(3-phenyl-1H-pyrazol-1-yl)nicotinamide] |  | + (30≦Ki(cathepsin L)/Ki(calpain)<50) | ++ (Ki(cathepsin S)/Ki(calpain) ratio of ≧100) |
| 40 to 100 | + (10≦Ki(cathepsin K)/Ki(calpain)<30) | CN1CCN(c2ccc(-c3ccn(-c4ncccc4C(=O)NC(Cc4ccccc4)C(=O)C(N)=O)n3)cc2)CC1 (stereo not drawn) [Example 68, N-(3-Amino-1-benzyl-2,3-dioxopropyl)-2-{3-[4-(4-methylpiperazin-1-yl)phenyl]-1H-pyrazol-1-yl}nicotinamide] |  |  | ++ (Ki(cathepsin S)/Ki(calpain) ratio of ≧100) |
| 40 to 100 | + (10≦Ki(cathepsin K)/Ki(calpain)<30) | NC(=O)C(=O)C(Cc1ccccc1)NC(=O)c1cccnc1-n1ccc(-c2ccc3c(c2)CCO3)n1 (stereo not drawn) [Example 75, N-(3-Amino-1-benzyl-2,3-dioxopropyl)-2-[3-(2,3-dihydrobenzo[b]furan-5-yl)-1H-pyrazol-1-yl]nicotinamide] |  | ++ (Ki(cathepsin L)/Ki(calpain) ratio of ≧50) | ++ (Ki(cathepsin S)/Ki(calpain) ratio of ≧100) |
| 40 to 100 | + (10≦Ki(cathepsin K)/Ki(calpain)<30) | NC(=O)C(=O)C(Cc1ccccc1)NC(=O)c1cccnc1-n1ccc(C2CCCCC2)n1 (stereo not drawn) [Example 192, N-[3-Amino-2,3-dioxo-1-(phenylmethyl)propyl]-2-(3-cyclohexyl-1H-pyrazol-1-yl)pyridine-3-carboxamide] |  | ++ (Ki(cathepsin L)/Ki(calpain) ratio of ≧50) | ++ (Ki(cathepsin S)/Ki(calpain) ratio of ≧100) |

| SMILES | Ki [1] [nM] | Sel cat. K (Ki(cathepsin K)/Ki(calpain) ratio) [3] | Sel cat. B (Ki(cathepsin B)/Ki(calpain) ratio) [2] | Sel cat. L (Ki(cathepsin L)/Ki(calpain) ratio) [4] | Sel cat. S (Ki(cathepsin S)/Ki(calpain) ratio) [5] |
| --- | --- | --- | --- | --- | --- |
| NC(=O)C(=O)C(Cc1ccccc1)NC(=O)c1cccnc1-n1ccc(-c2cccc(N3CCCC3)c2)n1 (stereo not drawn) [Example 74, N-(3-Amino-1-benzyl-2,3-dioxopropyl)-2-[3-(3-pyrrolidin-1-ylphenyl)-1H-pyrazol-1-yl]nicotinamide] | ≤ 40 | ++ (Ki(cathepsin K)/Ki(calpain) ratio of ≧30) | ++ (Ki(cathepsin B)/Ki(calpain) ratio of ≧30) |  | ++ (Ki(cathepsin S)/Ki(calpain) ratio of ≧100) |
| N#Cc1cnc(-n2ccc(-c3ccccc3F)n2)c(C(=O)NC(Cc2ccccc2)C(=O)C(N)=O)c1 (stereo not drawn) [Example 188, N-[3-Amino-2,3-dioxo-1-(phenylmethyl)propyl]-5-cyano-2-[3-(2-fluorophenyl)-1H-pyrazol-1-yl]pyridine-3-carboxamide] | 40 to 100 | ++ (Ki(cathepsin K)/Ki(calpain) ratio of ≧30) |  | ++ (Ki(cathepsin L)/Ki(calpain) ratio of ≧50) |  |
